Series [1] relates to complex IV of the mitochondrial electron transport chain. The series can be described thus: High-resolution respirometry, TMPD/ascorbate + antimycin A (complex IV). The series is classed as cell-based, human. The following applies: AS 100 µM, OZ78 500 µM, MT04 500 µM, 24 h, permeabilized HepG2. How it is done:
(§1) After incubation with different drugs for 24 h, HepG2 cells were trypsinized and resuspended in DMEM with 10% fetal calf serum (FCS) and then centrifuged for 5 min (180× g). Cells were resuspended in MiRo5 respiration buffer (110 mM sucrose, 0.5 mM ethylene glycol-bis(β-aminoethyl ether)-N,N,N′,N′-tetraacetic acid (EGTA), 3.0 mM MgCl2, 80 mM KCl, 60 mM K-lactobionate, 10 mM KH2PO4, 20 mM taurine, 20 mM Hepes, 1.0 g/L BSA, pH 7.1). Respiration rates were measured at 37 °C using a high-resolution oxygraph (Oxygraph-2k, Oroboros Instruments, Innsbruck, Austria). Respiration rates were calculated as the time derivative of oxygen concentration measured in the closed respirometer. The amplified signal was recorded in a computer with an online display of the calibrated oxygen concentration and oxygen flux (DatLab software for data acquisition and analysis; Oroboros Instruments). The mitochondrial complex activity was assessed by a standard titration protocol: first cells were permeabilized with digitonin (10 µg/1 million cells) for 5 min. Afterward, for complex I-dependent maximal respiration stimulation, substrates added were glutamate (10 mM) and malate (5 mM), which provide nicotinamide adenine dinucleotide (NADH) to the respiratory chain (complex I activation), followed by addition of ADP (2.5 mM) (state 3, maximal respiration). After a stable signal was reached and marked, rotenone (0.5 µM) was added to inhibit complex I, and then complex II-dependent respiration was stimulated by adding succinate (10 mM), which provides flavin adenine dinucleotide (FADH) to the respiratory chain (complex II activation, state 3). Afterward, complex III was inhibited by antimycin A (2.5 µM), and complex IV-dependent respiration was measured by adding ascorbate (2 mM) and N,N,N′,N′-tetramethyl-p-phenylendiamine (TMPD, 0.5 mM). We confirmed the integrity of the outer mitochondrial membrane by showing the absence of a stimulatory effect of exogenous cytochrome c (10 µM) on respiration. Respiration was expressed as oxygen consumption per 5 × 10^5 cells.

In series [2] the test system is complex I of the mitochondrial electron transport chain. The series can be described thus: High-resolution respirometry, glutamate/malate (complex I). The class given is cell-based, human. The following applies: AS 100 µM, OZ78 500 µM, MT04 500 µM, 24 h, permeabilized HepG2, vs DMSO. Here is the method: as §1
For the next series, the system named is NMRI mice. In words: Liver toxicity study in mice (plasma AST, aPhos, bilirubin, liver histology). The series is classed as in vivo, mouse. To be noted: for Histopathologic observation: liver 8 hours; for plasma alkaline phosphatase (aPhos) / plasma aspartate aminotransferase (AST) / total serum bilirubin: single oral dose 200-800 mg/kg, 8 h post-treatment; for hepatic toxicity in vivo (overall): single oral doses up to 800 mg/kg. How it is done: All animal studies were carried out at the Swiss Tropical and Public Health Institute (Basel, Switzerland) and were approved by Swiss and cantonal authorities (permission: 2070). Female NMRI mice (age: 3–4 weeks, weight: ~20 g) were purchased from Harlan Laboratories (Horst, The Netherlands). Mice were kept in groups of 10 animals in macrolon-cages in environmentally controlled conditions (temperature: ~25 °C; humidity: ~70%; 12 h light/dark cycle) and acclimatized for one week. They had free access to water and rodent diet. For the in vivo studies AS, OZ78 or MT04 were suspended in 7% (v/v) Tween-80 and 3% (v/v) ethanol.
Since treatment of F. hepatica infections in animals is typically performed by a single oral dose, we performed a pilot study to find out the best time point to kill the mice at which we could observe hepatic toxicity after drug application. This time point was 8 h after drug application (data not shown).
In the final experiment, mice were treated with 200, 400, or 800 mg/kg AS, OZ78, or MT04 by oral gavage. Seven mice were left untreated for control measurements. According to the results of the pilot experiments, where we measured the highest increase in total serum bilirubin, AST or alkaline phosphatase 8 h post-treatment, mice were euthanized by CO2 8 h post-treatment, blood was collected and analyzed as described above. After blood collection, the liver was removed, carefully examined macroscopically, and gross lesions were recorded. Livers were then stored in formalin 10% (v/v) until fixation in 4% paraformaldehyde was performed. After embedding in paraffin, sections of 5 μm thickness were obtained, stained with hematoxylin and eosin, and examined using light microscopy.

For series [3], the system named is HepG2 cells. In words: Cellular reactive oxygen species (DCF-DA). The series is classed as cell-based, human. To be noted: 24 h, HepG2; for cellular ROS content: drug + Fe2+; for increase of cellular ROS content, factor: drug alone (100 or 500 µM), no exogenous iron. How it is done: Stock solutions of the drugs tested were prepared in DMSO 100% (v/v). […] LC-MS measurements confirmed the stability of the compounds (data not shown). Treatments with AS, MT04, or OZ78 (100 or 500 µM) were performed either alone or in combination with 8% (v/v) hemin or FeCl2 solution for 24 h. The final iron concentration used was 122 µM (stock 1.5 mM) based on previous in vitro studies with F. hepatica. Dichlorodihydrofluorescein diacetate (DCF-DA) dissolved in DMSO was used to assess cellular formation of reactive oxygen species (ROS). HepG2 cells were seeded in a black-wall 96 well plate with a clear bottom as described above. Briefly, 30 min before treatment started, DCF-DA was added to the cells at a final concentration of 25 µM. DCF-DA was removed completely before the drugs were added. ROS was measured after 90 min and 24 h of drug exposure using a Tecan M200 Infinite Pro (excitation 485 nm, emission 535 nm).

In series [4] the test system is HepG2 cells. The series can be described thus: Adenylate kinase leakage (membrane integrity test). The following applies: 24 h, HepG2; for increase in AK release as compared to DMSO control / membrane integrity: 500 µM alone (OZ78, MT04: up to 500 µM); for release of AK, increase as compared to DMSO: combined treatment with Fe2+, concentration not given. The series is classed as cell-based, human. Here is the method: Stock solutions of the drugs tested were prepared in DMSO 100% (v/v).
In viability assays, HepG2 cells were treated with 0.1% Triton-X or 0.1% DMSO for positive or negative control, respectively.
The assay was used according to the protocol supplied by the manufacturer.

Each structure is given as a SMILES string.

As for `C[C@H]1[C@H](OC(=O)CCC(=O)O)O[C@@H]2O[C@@]3(C)CC[C@H]4[C@H](C)CC[C@@H]1[C@@]24OO3` [AS, artesunate, reference compound], the “decrease of maximal ADP-stimulated respiration rate, TMPD/ascorbate + antimycin A (complex IV)” value in series [1] is on record as 47%. Besides, in series [2], the “inhibition of maximal ADP-stimulated respiration rate, glutamate + malate (complex I)” value (from here on “inhibition”) was 75%. Further, the Histopathologic observation result was “No lesions” with NMRI mice (200 mg/kg oral, mouse 1); “No lesions” with NMRI mice (200 mg/kg oral, mouse 2); “No lesions” with NMRI mice (200 mg/kg oral, mouse 3); “No lesions” in the series with NMRI mice (400 mg/kg oral, mouse 1); “No lesions” with NMRI mice (400 mg/kg oral, mouse 2); “Beginning nodular regeneration” in the series with NMRI mice (400 mg/kg oral, mouse 3). Further, the Histopathologic observation entry is “Steatosis” in the series on NMRI mice (800 mg/kg oral, mouse 1); “Small area of confluent necrosis” in the series on NMRI mice (800 mg/kg oral, mouse 2); “No lesions” with NMRI mice (800 mg/kg oral, mouse 3). Moreover, the “liver histology, group summary” value in the series on NMRI mice (mice, 200 mg/kg oral, 8 h) is “not associated with liver injury”; in the series on NMRI mice (mice, 800 mg/kg oral, 8 h), “one mouse was without lesions, one with steatosis, and one with confluent necrosis”. The “time of highest values of AST, aPhos and total serum bilirubin (pilot study)” value in the series with NMRI mice (mice, single oral dose 400 mg/kg, sampled 2, 4, 8, 12, 24 h) was 8 h. Moreover, the “plasma alkaline phosphatase (aPhos)” value in the series with NMRI mice (mice) was “did not increase”. Also, the “plasma aspartate aminotransferase (AST)” value in the series on NMRI mice (mice) is “moderately increased with escalating doses”. The total serum bilirubin entry in the series on NMRI mice (mice) is given as “did not increase”. The “liver lesions (pilot study)” value in the series with NMRI mice (mouse, in vivo, po, 400 mg/kg) is “no liver lesions were observed”. Also, the “cellular ROS content” value in the series with HepG2 cells [3] is listed as “increased the cellular ROS content”. For the same compound, the “increase of cellular ROS content, factor” value with HepG2 cells [3] turned out to be 5. In addition, in the series on HepG2 cells [4] (100 µM + Fe2+), the “membrane leakage (AK release) as compared to DMSO control” value is 320%. In the series on HepG2 cells [4] (100 µM alone), the “increase in AK release as compared to DMSO control” value is on record as 190%. Moreover, the “increase in AK release as compared to DMSO control / membrane integrity” value (“increase … to DMSO control / membrane integrity” for short) in the series with HepG2 cells [4] was 270%.
Take `O=C(O)CC1CCC2(CC1)OOC1(OO2)C2CC3CC(C2)CC1C3` (stereo not shown) [MT04]: the “decrease of maximal ADP-stimulated respiration rate, TMPD/ascorbate + antimycin A (complex IV)” value in series [1] is reported as 22%. For the same compound, the “inhibition” value in series [2] came out at 53%. Further, the Histopathologic observation result in the series with NMRI mice (200 mg/kg oral, mouse 1) is given as “No lesions”; in the series on NMRI mice (200 mg/kg oral, mouse 2) it was “No lesions”; in the series with NMRI mice (200 mg/kg oral, mouse 3) it was “No lesions”; in the series with NMRI mice (200 mg/kg oral, mouse 4) it was “Nuclear polymorphism”; with NMRI mice (400 mg/kg oral, mouse 1), “Nuclear polymorphism”; with NMRI mice (400 mg/kg oral, mouse 2) it was “Nuclear polymorphism”. The Histopathologic observation entry with NMRI mice (400 mg/kg oral, mouse 3) was “No lesions”; in the series on NMRI mice (400 mg/kg oral, mouse 4), “No lesions”; with NMRI mice (800 mg/kg oral, mouse 1), “No lesions”; in the series with NMRI mice (800 mg/kg oral, mouse 2) it was “Slight hydropic degeneration”; in the series with NMRI mice (800 mg/kg oral, mouse 3) it was “Slight hydropic degeneration and nuclear polymorphism”; with NMRI mice (800 mg/kg oral, mouse 4), “Slight hydropic degeneration and nuclear polymorphism”. For the same compound, the “AST values of single mice” value in the series with NMRI mice (mice, 200 mg/kg oral, 8 h) is “Two mice treated with 200 mg/kg MT04 had highly elevated AST values”. Also, the “liver histology, group summary” value in the series on NMRI mice (mice, 400 mg/kg oral, 8 h) was “no pathologic liver histology”; with NMRI mice (mice, 800 mg/kg oral, 8 h), “Three out of four mice treated with 800 mg/kg MT04 presented hydropic degeneration”. For the same compound, in the series on NMRI mice (mice), the “plasma aspartate aminotransferase (AST)” value is given as “did not affect AST levels in a concentration-dependent fashion”. Moreover, the “hepatic toxicity in vivo (overall)” value with NMRI mice (mice, 8 h) is given as “no relevant hepatic toxicity”. In the series with HepG2 cells [3], the “cellular ROS content” value is on record as “not”. Also, the “increase … to DMSO control / membrane integrity” value in the series on HepG2 cells [4] is on record as “did not impair membrane integrity”. Moreover, in the series on HepG2 cells [4], the “release of AK, increase as compared to DMSO” value was 200%.
In the case of `O=C(O)C[C@H]1CC[C@]2(CC1)OOC1(O2)C2CC3CC(C2)CC1C3` (stereo partly shown) [OZ78], in series [1], the “decrease of maximal ADP-stimulated respiration rate, TMPD/ascorbate + antimycin A (complex IV)” value is reported as “only numerically, but without reaching statistical significance”. Moreover, in series [2], the “inhibition” value was “did not significantly impair mitochondrial function”. The Histopathologic observation entry is listed as “No lesions” in the series on NMRI mice (200 mg/kg oral, mouse 1); “Slight hydropic degeneration” with NMRI mice (200 mg/kg oral, mouse 2); “Slight hydropic degeneration” in the series on NMRI mice (200 mg/kg oral, mouse 3); “No lesions” with NMRI mice (200 mg/kg oral, mouse 4); “Slight hydropic degeneration” in the series on NMRI mice (400 mg/kg oral, mouse 1); “Passive congestion” in the series on NMRI mice (400 mg/kg oral, mouse 2). The Histopathologic observation result is “Nuclear polymorphism” in the series with NMRI mice (400 mg/kg oral, mouse 3); “Slight hydropic degeneration” in the series with NMRI mice (400 mg/kg oral, mouse 4); “Slight hydropic degeneration” with NMRI mice (800 mg/kg oral, mouse 1); “No lesions” in the series with NMRI mice (800 mg/kg oral, mouse 2); “Passive congestion” in the series on NMRI mice (800 mg/kg oral, mouse 3); “Slight hydropic degeneration” in the series with NMRI mice (800 mg/kg oral, mouse 4). Moreover, the “liver histology, group summary” value with NMRI mice (mice, 200 mg/kg oral, 8 h) was “two mice (out of four) with slight hydropic degeneration of hepatocytes”; in the series with NMRI mice (mice, 400 mg/kg oral, 8 h), “two mice (out of four) with slight hydropic degeneration of hepatocytes”; in the series with NMRI mice (mice, 800 mg/kg oral, 8 h), “two mice (out of four) with slight hydropic degeneration of hepatocytes”. Moreover, the “plasma alkaline phosphatase (aPhos)” value in the series on NMRI mice (mice) was “in the normal range”. In addition, the “plasma aspartate aminotransferase (AST)” value in the series on NMRI mice (mice) was “in the normal range”. Moreover, the total serum bilirubin result in the series on NMRI mice (mice) is listed as “in the normal range”. Further, in the series with NMRI mice (mice, 8 h), the “hepatic toxicity in vivo (overall)” value is reported as “no relevant hepatic toxicity”. In addition, the “cellular ROS content” value in the series on HepG2 cells [3] is “increased the cellular ROS content”. In addition, the “increase of cellular ROS content, factor” value in the series with HepG2 cells [3] turned out to be 5. Also, the “increase … to DMSO control / membrane integrity” value in the series with HepG2 cells [4] was “did not impair membrane integrity”. In addition, the “release of AK, increase as compared to DMSO” value with HepG2 cells [4] is “did not”.

These data come from publication PMC6801819, “Exogenous Iron Increases Fasciocidal Activity and Hepatocellular Toxicity of the Synthetic Endoperoxides OZ78 and MT04” (International Journal of Molecular Sciences, 2019).
